{
  "source": "paper PMC8414367",
  "about": "“(E)-7-Ethylidene-lithocholic Acid (7-ELCA) Is a Potent Dual Farnesoid X Receptor (FXR) Antagonist and GPBAR1 Agonist Inhibiting FXR-Induced Gene Expression in Hepatocytes and Stimulating Glucagon-like Peptide-1 Secretion From Enteroendocrine Cells” (Frontiers in Pharmacology, 2021)",
  "key": {"[1]": {"target": "T1, human FXR (Homo sapiens, UniProt Q96RI1)", "T1 sequence (Q96RI1 1-486)": "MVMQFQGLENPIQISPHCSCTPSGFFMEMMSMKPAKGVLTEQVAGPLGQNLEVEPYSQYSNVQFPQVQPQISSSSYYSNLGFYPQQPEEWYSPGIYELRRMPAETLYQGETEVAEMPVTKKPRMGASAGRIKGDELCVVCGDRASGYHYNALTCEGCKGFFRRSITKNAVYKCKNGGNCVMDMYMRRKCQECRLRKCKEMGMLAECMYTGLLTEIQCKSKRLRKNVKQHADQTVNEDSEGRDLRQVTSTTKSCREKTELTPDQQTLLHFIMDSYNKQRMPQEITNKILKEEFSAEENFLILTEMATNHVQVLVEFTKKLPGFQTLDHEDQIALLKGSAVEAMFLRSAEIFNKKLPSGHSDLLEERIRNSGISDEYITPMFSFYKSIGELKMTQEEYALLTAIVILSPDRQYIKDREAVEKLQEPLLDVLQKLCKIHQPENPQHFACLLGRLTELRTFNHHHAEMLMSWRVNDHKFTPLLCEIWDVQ", "T1 sequence (P19793 1-462 partner)": "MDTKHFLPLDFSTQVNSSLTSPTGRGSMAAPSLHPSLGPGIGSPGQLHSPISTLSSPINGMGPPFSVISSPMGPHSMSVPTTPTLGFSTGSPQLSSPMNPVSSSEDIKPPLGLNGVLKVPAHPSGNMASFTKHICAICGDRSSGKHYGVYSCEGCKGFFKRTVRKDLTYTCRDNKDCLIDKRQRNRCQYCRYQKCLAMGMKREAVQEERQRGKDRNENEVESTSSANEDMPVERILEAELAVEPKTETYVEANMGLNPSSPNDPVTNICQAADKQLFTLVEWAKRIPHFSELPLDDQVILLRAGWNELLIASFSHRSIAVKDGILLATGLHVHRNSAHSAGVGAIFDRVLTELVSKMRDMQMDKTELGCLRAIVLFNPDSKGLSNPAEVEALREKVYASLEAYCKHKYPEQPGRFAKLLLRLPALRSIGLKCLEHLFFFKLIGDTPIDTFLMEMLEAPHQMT", "experiment": "FXR luciferase reporter gene assay (FXRE-luc) in HepG2 cells, antagonistic mode", "assay_type": "cell-based", "details": "for IC50: HepG2, co-treatment with 1 µM OCA, 24 h, read-out: IC50, inhibition of OCA-induced FXR activation"}, "[2]": {"target": "glucocorticoid receptor (GR) (Homo sapiens, UniProt P04150)", "sequence (P04150 whole entry)": "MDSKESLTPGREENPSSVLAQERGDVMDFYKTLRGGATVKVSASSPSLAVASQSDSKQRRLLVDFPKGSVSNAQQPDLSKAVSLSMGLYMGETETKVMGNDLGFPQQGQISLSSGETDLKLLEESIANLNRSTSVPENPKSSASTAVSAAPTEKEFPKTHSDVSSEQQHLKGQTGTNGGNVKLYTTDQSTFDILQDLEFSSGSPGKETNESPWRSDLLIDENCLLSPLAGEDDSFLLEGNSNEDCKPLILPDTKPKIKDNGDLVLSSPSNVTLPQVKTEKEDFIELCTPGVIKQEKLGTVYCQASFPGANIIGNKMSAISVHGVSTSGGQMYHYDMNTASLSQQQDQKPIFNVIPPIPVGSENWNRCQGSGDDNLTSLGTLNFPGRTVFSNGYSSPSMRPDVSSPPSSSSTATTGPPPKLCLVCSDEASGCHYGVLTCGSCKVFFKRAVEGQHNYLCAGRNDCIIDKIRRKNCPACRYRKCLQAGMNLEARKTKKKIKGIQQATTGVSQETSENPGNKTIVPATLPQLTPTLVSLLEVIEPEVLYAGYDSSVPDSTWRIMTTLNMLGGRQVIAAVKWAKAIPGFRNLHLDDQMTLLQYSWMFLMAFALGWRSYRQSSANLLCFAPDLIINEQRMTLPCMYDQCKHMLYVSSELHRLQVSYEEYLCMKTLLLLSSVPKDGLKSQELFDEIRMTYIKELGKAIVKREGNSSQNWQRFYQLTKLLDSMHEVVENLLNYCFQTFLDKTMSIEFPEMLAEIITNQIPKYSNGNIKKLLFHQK", "experiment": "Nuclear receptor specificity luciferase reporter assay in HepG2 cells", "quoted_text": "(§1) For transient transfection, HepG2 cells were seeded at the density of 40,000 cells/cm^2. […] The next day, cells were challenged with tested ligands in indicated concentrations for 5 h. […] All the other transient transfection reporter gene assays were performed with Lipofectamine® 3000 (ThermoFisher Scientific). Briefly, cells were transfected with 150 ng/well luciferase reporter gene constructs (p(DR3)3-luc, SHP-luc, p3A4-luc, pTAT-(GRE)2-TK-luc, p2B6-luc, pGL4.35[luc2P⁄9XGAL4UAS⁄Hygro]), FXRE-luc together with 100 ng/well of the corresponding full-length fragment nuclear receptor expression vectors (pSG5-hVDR, pSG5-hFXR, pSG5-hRXRα, pSG5-hPXR, CAR3 variant) or the ligand binding domains of human, pCMX-GAL4-hFXR, pCMX-GA4L-LXRα, pCMX-GA4L-LXRα, pCMX-GA4L-TRα, pCMX-GA4L-PPARα, pCMX-GAL4-PPARγ, pCMX-GAL4-PPARδ) and 30 ng/well of pRL-TK Renilla luciferase vector 24 h prior to the treatment. […] The firefly luciferase activity was measured using the Dual Luciferase® Reporter Assay System (Promega) and normalized to Renilla luciferase activity. Experiments in an agonistic mode were performed with OCA, CDCA or tested compounds (all compounds at 10 μM). […] EC50 and IC50 were calculated using GraphPad PRISM ver. […]\n(§2) Data were normalized to Renilla luciferase activity and are expressed as fold activation relative to control (nontreated, NT) cells. […]"}, "[3]": {"test_system": "BSEP and SHP mRNA (FXR target genes), primary human hepatocytes", "experiment": "RT-qPCR of FXR target genes in primary human hepatocytes", "assay_type": "cell-based", "details": "for BSEP mRNA level upregulated by OCA / SHP mRNA level upregulated by OCA: 40 µM with OCA 1 µM, 24 h; for BSEP and SHP mRNA expression, compound per se: without OCA", "description": "Total RNA from HepaRG cells or primary human hepatocyte samples was isolated by the phenol/chloroform method with TRI-reagent (Merck) according to the manufacturer's protocol. The cDNA was synthesized using a Tetro cDNA Synthesis Kit (Bioline, now Meridian Bioscience, Memphis, United States), and RT-qPCR was run in the Quant Studio 6 instrument using the Fast Advanced Master Mix (ThermoFisher Scientific, Waltham, United States) according to the MIQE protocols. All the probes were obtained from ThermoFisher Scientific: ABCB11 (BSEP, Hs00184824_m1), NR0B2 (SHP, Hs00222677_m1).\nFIGURE 6 Regulation of FXR downstream genes by 7-ELCA and 7β-propyl-CDCA in the presence or absence of 1 µM OCA as the potent FXR agonist. Real-time qPCR analysis of mRNA expression of (A,C) BSEP and (B,D) SHP genes was performed in terminally differentiated HepaRG hepatic cells (A,B), and in primary human hepatocytes (PHH) from one donor treated for 24 h (C,D). (E) SHP protein expression in HepaRG cells after 48 h treatment with OCA alone or in combination with 7-ELCA and 7β-propyl-CDCA. Data were normalized to B2M mRNA or GAPDH protein and are expressed relative to those of control (vehicle-treated) cells."}, "[4]": {"target": "PPARβ/δ (Homo sapiens, UniProt Q03181)", "sequence (Q03181 211-439 limits assumed)": "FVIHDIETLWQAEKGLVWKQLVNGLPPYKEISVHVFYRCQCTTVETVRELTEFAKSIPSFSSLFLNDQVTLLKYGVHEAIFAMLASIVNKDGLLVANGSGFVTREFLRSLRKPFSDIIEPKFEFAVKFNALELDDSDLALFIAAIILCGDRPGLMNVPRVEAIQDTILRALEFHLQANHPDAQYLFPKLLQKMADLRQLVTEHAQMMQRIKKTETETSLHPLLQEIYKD", "experiment": "Nuclear receptor specificity luciferase reporter assay in HepG2 cells", "quoted_text": "as §1, §2"}, "[5]": {"target": "T2, GPBAR1 (Homo sapiens, UniProt Q8TDU6)", "T2 construct": "host or cells: HepG2", "T2 sequence (Q8TDU6 1-330)": "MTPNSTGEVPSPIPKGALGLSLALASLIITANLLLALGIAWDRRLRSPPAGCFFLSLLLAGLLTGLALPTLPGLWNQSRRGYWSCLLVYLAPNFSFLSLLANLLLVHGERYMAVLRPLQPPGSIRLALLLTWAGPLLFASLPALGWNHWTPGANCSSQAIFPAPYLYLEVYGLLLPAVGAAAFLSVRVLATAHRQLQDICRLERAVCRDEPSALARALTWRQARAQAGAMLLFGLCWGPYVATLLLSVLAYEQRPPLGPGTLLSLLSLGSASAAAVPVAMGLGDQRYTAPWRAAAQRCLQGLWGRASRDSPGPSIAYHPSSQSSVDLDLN", "experiment": "GPBAR1 CRE-luc luciferase reporter assay in HepG2 cells", "assay_type": "cell-based", "details": "for CRE-luc activation compared to LCA (in words): 10 µM, 5 h, LCA 10 µM set as 100%", "description": "(C) Effects of LCA and 7-ELCA (both at 10 µM) on intracellular generation of cAMP in differentiated NCI-H716 cells after 30 min treatment. The increase in cAMP level (ΔcAMP) is presented as the difference between cAMP concertation in the treated sample after subtraction of the cAMP in the nontreated control sample. (D) Concentration-response curves for activation of GPBAR1 by LCA and 7-ELCA. EC50 values were calculated using nonlinear fitting of concentration-response curves. […] GLP-1 was normalized to protein concentration and GPBAR1 mRNA expression to GAPDH mRNA. Data are presented as a fold to control nontreated (NT) samples. Forskolin (FSK, 10 µM) was used as a GPBAR1-independent activator of cAMP production."}, "[6]": {"target": "thyroid receptor (TRα) (Homo sapiens, UniProt P10827)", "sequence (P10827 163-410 isoform P10827-2 limits assumed)": "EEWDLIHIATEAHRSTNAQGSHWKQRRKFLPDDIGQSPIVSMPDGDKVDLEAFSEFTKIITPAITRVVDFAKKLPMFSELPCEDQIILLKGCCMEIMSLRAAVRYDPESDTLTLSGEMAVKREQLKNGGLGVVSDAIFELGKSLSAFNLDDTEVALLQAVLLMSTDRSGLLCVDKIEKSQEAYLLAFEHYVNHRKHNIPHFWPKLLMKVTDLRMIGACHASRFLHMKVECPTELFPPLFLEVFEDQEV", "experiment": "Nuclear receptor specificity luciferase reporter assay in HepG2 cells"}, "[7]": {"details": "HepG2, read-out: relative response (%) to the model FXR ligand activation (set to be 100%), GW4064 1 µM"}},
  "note": "Values joined by “and” are separate entries in the source; they are usually repeats but may differ in a detail not shown here. Identical values can stand only once. Like-named read-outs stand apart in the source and are kept apart here.",
  "data": [
    {"smiles": "C/C=C1\\C[C@@H]2C[C@H](O)CC[C@]2(C)[C@H]2CC[C@]3(C)[C@@H]([C@H](C)CCC(=O)O)CC[C@H]3[C@H]12", "note": "[2a, (E)-3α-Hydroxy-7-ethylidene-5β-cholan-24-oic acid]", "values": [
      {"measurement": "IC50", "setting": "[1]", "result": "15 µM and 15.1 µM"},
      {"measurement": "inhibition at 100 µM", "setting": "[1]; HepG2, read-out: inhibition of FXR activation", "result": "~95", "unit": "%"},
      {"measurement": "remaining activity at 40 µM", "setting": "[1]; HepG2, read-out: relative response (%) to the model FXR ligand activation (set to be 100%), CDCA 20 µM", "result": "67.3 ± 0.6", "unit": "%"},
      {"measurement": "remaining activity at 10 µM", "setting": "[1]; [7]", "result": "82.9 ± 2.3", "unit": "%"},
      {"measurement": "remaining activity at 40 µM", "setting": "[1]; [7]", "result": "51.1 ± 2.9", "unit": "%"},
      {"measurement": "capacity to antagonize OCA-stimulated FXR activation (in words)", "setting": "[1]; with 1 µM OCA, Figure 3B", "result": "most potent FXR antagonist"},
      {"measurement": "antagonism of GR activation by model ligand", "setting": "[2]; 10 µM, with dexamethasone 50 nM", "result": "did not antagonize"},
      {"measurement": "activation of GR", "setting": "[2]; agonistic assay, 24 h", "result": "did not activate"},
      {"measurement": "BSEP mRNA level upregulated by OCA", "setting": "[3]", "result": "reduced"},
      {"measurement": "SHP mRNA level upregulated by OCA", "setting": "[3]", "result": "reduced"},
      {"measurement": "BSEP and SHP mRNA expression, compound per se", "setting": "[3]", "result": "did not have an impact"},
      {"measurement": "melting point", "result": "67 to 72", "unit": "°C"},
      {"measurement": "antagonism of PPARβ/δ activation by model ligand", "setting": "[4]; 10 µM, with GW501516 1 µM", "result": "did not antagonize"},
      {"measurement": "activation of PPARβ/δ", "setting": "[4]; agonistic assay, 24 h", "result": "did not activate"},
      {"measurement": "CRE-luc activation compared to LCA (in words)", "setting": "[5]", "result": "significantly increase CRE-luc activation more than LCA"},
      {"measurement": "EC50", "setting": "[5]; abstract, read-out: EC50, GPBAR1 agonist", "result": 0.026, "unit": "µM"},
      {"measurement": "antagonism of TRα activation by model ligand", "setting": "[6]; 10 µM, with thyroxin 1 µM", "result": "did not antagonize"},
      {"measurement": "activation of TRα", "setting": "[6]; agonistic assay, 24 h", "result": "did not activate"}
    ]},
    {"smiles": "CCC[C@@]1(O)C[C@@H]2C[C@H](O)CC[C@]2(C)C2CC[C@@]3(C)C(CC[C@@H]3[C@H](C)CCC(=O)O)C21", "note": "(stereo partly drawn) [2f, 3α,7α-Dihydroxy-7β-propyl-5β-cholan-24-oic acid]", "values": [
      {"measurement": "IC50", "setting": "[1]", "result": "20.5 ± 1", "unit": "µM"},
      {"measurement": "inhibition at 100 µM", "setting": "[1]; HepG2, at 100 µM, with 1 µM OCA, read-out: inhibition of FXR activation", "result": "~85", "unit": "%"},
      {"measurement": "remaining activity at 10 µM", "setting": "[1]; HepG2, tested compound 10 µM, GW4064 1 µM, read-out: relative response (%) to the model FXR ligand activation (set to be 100%), GW4064 1 µM", "result": "85.7 ± 11.2", "unit": "%"},
      {"measurement": "remaining activity at 40 µM", "setting": "[1]; HepG2, tested compound 40 µM, CDCA 20 µM, * = significant effect on cellular viability, read-out: relative response (%) to the model FXR ligand activation (set to be 100%), CDCA 20 µM", "result": "96.4 ± 0.7", "unit": "%"},
      {"measurement": "remaining activity at 40 µM", "setting": "[1]; HepG2, tested compound 40 µM, GW4064 1 µM, * = significant effect on cellular viability, read-out: relative response (%) to the model FXR ligand activation (set to be 100%), GW4064 1 µM", "result": "61.7 ± 10.8", "unit": "%"},
      {"measurement": "BSEP mRNA level upregulated by OCA", "setting": "[3]", "result": "reduced"},
      {"measurement": "SHP mRNA level upregulated by OCA", "setting": "[3]", "result": "reduced"},
      {"measurement": "BSEP and SHP mRNA expression, compound per se", "setting": "[3]", "result": "did not have an impact"},
      {"measurement": "melting point", "result": "100 to 105", "unit": "°C"},
      {"measurement": "CRE-luc activation compared to LCA (in words)", "setting": "[5]", "result": "comparable activities to LCA"}
    ]}
  ]
}
